According to ChEMBL document CHEMBL1201862, “PubChem BioAssay data set” (2004):
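Step 1: Grow cells in 96-well plates. Step 2: Expose to compound for 48 hours at 5 concentrations. Step 3: Interpolate endpoints linearly; if unreached, use highest concentration. GI50 marks 50% less growth.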 Activity calls are given as the source filed them. Rule as the data show it: active = GI50 up to about 1.1 µM and inactive = higher.

How the values were obtained:
Assay in all cases: inhibition of tumour cell growth, NCI panel, 48 h
786-0 = test system: 786-0
A498 = test system: A498
A549 = test system: A549
ACHN = test system: ACHN
BT-549 = test system: BT-549
CAKI-1 = test system: CAKI-1
CCRF-CEM = test system: CCRF-CEM
COLO 205 = test system: COLO 205
DU-145 = test system: DU-145
EKVX = test system: EKVX
HCC 2998 = test system: HCC 2998
HCT-116 = test system: HCT-116
HCT-15 = test system: HCT-15
HL-60 = test system: HL-60
HOP-62 = test system: HOP-62
HOP-92 = test system: HOP-92
HT-29 = test system: HT-29
Hs-578T = test system: Hs-578T
IGROV-1 = test system: IGROV-1
K562 = test system: K562
KM12 = test system: KM12
LOX IMVI = test system: LOX IMVI
M14 = test system: M14
MCF7 = test system: MCF7
MDA-MB-231 = test system: MDA-MB-231
MDA-MB-435 = test system: MDA-MB-435
MDA-N = test system: MDA-N
MOLT-4 = test system: MOLT-4
Malme-3M = test system: Malme-3M
NCI-H226 = test system: NCI-H226
NCI-H23 = test system: NCI-H23
NCI-H460 = test system: NCI-H460
NCI-H522 = test system: NCI-H522
NCI/ADR-RES = test system: NCI/ADR-RES
OVCAR-3 = test system: OVCAR-3
OVCAR-4 = test system: OVCAR-4
OVCAR-5 = test system: OVCAR-5
OVCAR-8 = test system: OVCAR-8
PC-3 = test system: PC-3
RPMI-8226 = test system: RPMI-8226
RXF 393 = test system: RXF 393
SF-268 = test system: SF-268
SF-295 = test system: SF-295
SF-539 = test system: SF-539
SK-MEL-28 = test system: SK-MEL-28
SK-MEL-2 = test system: SK-MEL-2
SK-MEL-5 = test system: SK-MEL-5
SK-OV-3 = test system: SK-OV-3
SN12C = test system: SN12C
SNB-19 = test system: SNB-19
SNB-75 = test system: SNB-75
SR = test system: SR
SW-620 = test system: SW-620
T47D = test system: T47D
TK-10 = test system: TK-10
U-251 = test system: U-251
UACC-257 = test system: UACC-257
UACC-62 = test system: UACC-62
UO-31 = test system: UO-31

Cc1cc2c(=Cc3ccc(N(C)C)cc3)c3ccccc3n2[n+]1C
GI50 (786-0): 0.607 µM (active) | GI50 (A498): 1.87 µM (inactive) | GI50 (A549): 0.632 µM (active) | GI50 (ACHN): 2.23 µM (inactive) | GI50 (BT-549): 0.537 µM (active) | GI50 (CAKI-1): 3.3 µM (inactive) | GI50 (CCRF-CEM): 0.944 µM (active) | GI50 (COLO 205): 0.164 µM (active) | GI50 (DU-145): 0.713 µM (active) | GI50 (EKVX): 1.02 µM (active) | GI50 (HCC 2998): 0.256 µM (active) | GI50 (HCT-116): 0.365 µM (active) | GI50 (HCT-15): 12.3 µM | GI50 (HL-60): 1.39 µM (inactive) | GI50 (HOP-62): 0.656 µM (active) | GI50 (HOP-92): 0.459 µM (active) | GI50 (HT-29): 0.675 µM (active) | GI50 (Hs-578T): 0.628 µM (active) | GI50 (IGROV-1): 1.52 µM (inactive) | GI50 (K562): 0.227 µM (active) | GI50 (KM12): 0.385 µM (active) | GI50 (LOX IMVI): 0.458 µM (active) | GI50 (M14): 1.05 µM (active) | GI50 (MCF7): 0.396 µM (active) | GI50 (MDA-MB-231): 0.847 µM (active) | GI50 (MDA-MB-435): 0.424 µM (active) | GI50 (MDA-N): 0.383 µM (active) | GI50 (MOLT-4): 0.282 µM (active) | GI50 (Malme-3M): 1.08 µM (active) | GI50 (NCI-H226): 1.01 µM (active) | GI50 (NCI-H23): 0.497 µM (active) | GI50 (NCI-H460): 0.393 µM (active) | GI50 (NCI-H522): 0.335 µM (active) | GI50 (NCI/ADR-RES): > 66.4 µM (inactive) | GI50 (OVCAR-3): 0.313 µM (active) | GI50 (OVCAR-4): 0.641 µM (active) | GI50 (OVCAR-5): 5.87 µM (inactive) | GI50 (OVCAR-8): 0.313 µM (active) | GI50 (PC-3): 0.44 µM (active) | GI50 (RPMI-8226): 0.107 µM (active) | GI50 (RXF 393): 2.09 µM (inactive) | GI50 (SF-268): 0.537 µM (active) | GI50 (SF-295): 1.05 µM (active) | GI50 (SF-539): 0.641 µM (active) | GI50 (SK-MEL-28): 1.2 µM (inactive) | GI50 (SK-MEL-2): 0.652 µM (active) | GI50 (SK-MEL-5): 0.414 µM (active) | GI50 (SK-OV-3): 1.44 µM (inactive) | GI50 (SN12C): 0.304 µM (active) | GI50 (SNB-19): 0.415 µM (active) | GI50 (SNB-75): 0.409 µM (active) | GI50 (SR): 0.0865 µM (active) | GI50 (SW-620): 1.21 µM (inactive) | GI50 (T47D): 0.282 µM (active) | GI50 (TK-10): 1.3 µM (inactive) | GI50 (U-251): 0.203 µM (active) | GI50 (UACC-257): 0.207 µM (active) | GI50 (UACC-62): 1.4 µM (inactive) | GI50 (UO-31): 3.01 µM (inactive)

C=CC(C)(C)n1cc(C2=C(O)C(=O)C(c3cn(C(C)(C)C=C)c4ccccc34)=C(O)C2=O)c2ccccc21
GI50 (786-0): 3.05 µM (inactive) | GI50 (A498): 5.97 µM (inactive) | GI50 (A549): 3.68 µM (inactive) | GI50 (ACHN): 3.69 µM (inactive) | GI50 (BT-549): 1.01 µM (active) | GI50 (CAKI-1): 2.34 µM (inactive) | GI50 (CCRF-CEM): 5.25 µM (inactive) | GI50 (COLO 205): 9.14 µM (inactive) | GI50 (DU-145): 4.9 µM (inactive) | GI50 (EKVX): 2.93 µM (inactive) | GI50 (HCC 2998): 2.61 µM (inactive) | GI50 (HCT-116): 3.27 µM (inactive) | GI50 (HCT-15): 1.75 µM | GI50 (HL-60): 5.09 µM (inactive) | GI50 (HOP-62): 2.32 µM (inactive) | GI50 (HOP-92): 3.34 µM (inactive) | GI50 (HT-29): 3.74 µM (inactive) | GI50 (Hs-578T): 2.07 µM (inactive) | GI50 (IGROV-1): 2.7 µM (inactive) | GI50 (K562): 5.62 µM (inactive) | GI50 (KM12): 3.37 µM (inactive) | GI50 (LOX IMVI): 3.13 µM (inactive) | GI50 (M14): 2.71 µM (inactive) | GI50 (MCF7): 3.48 µM (inactive) | GI50 (MDA-MB-231): 3.71 µM (inactive) | GI50 (MDA-MB-435): 3.79 µM (inactive) | GI50 (MDA-N): 1.95 µM (inactive) | GI50 (MOLT-4): 4.07 µM (inactive) | GI50 (Malme-3M): 2.54 µM (inactive) | GI50 (NCI-H226): 2.67 µM (inactive) | GI50 (NCI-H23): 2.32 µM (inactive) | GI50 (NCI-H460): 2.84 µM (inactive) | GI50 (NCI-H522): 2.53 µM (inactive) | GI50 (NCI/ADR-RES): 2.2 µM (inactive) | GI50 (OVCAR-3): 1.96 µM (inactive) | GI50 (OVCAR-4): 1.76 µM (inactive) | GI50 (OVCAR-5): 1.89 µM (inactive) | GI50 (OVCAR-8): 2.11 µM (inactive) | GI50 (PC-3): 2.27 µM (inactive) | GI50 (RPMI-8226): 4.44 µM (inactive) | GI50 (RXF 393): 0.435 µM (active) | GI50 (SF-268): 2.19 µM (inactive) | GI50 (SF-295): 2.85 µM (inactive) | GI50 (SF-539): 1.59 µM (inactive) | GI50 (SK-MEL-28): 7.33 µM (inactive) | GI50 (SK-MEL-2): 1.73 µM (inactive) | GI50 (SK-MEL-5): 2.08 µM (inactive) | GI50 (SK-OV-3): 2.67 µM (inactive) | GI50 (SN12C): 2.5 µM (inactive) | GI50 (SNB-19): 2.41 µM (inactive) | GI50 (SNB-75): 2.36 µM (inactive) | GI50 (SR): 3.57 µM (inactive) | GI50 (SW-620): 10.3 µM (inactive) | GI50 (T47D): 6.71 µM (inactive) | GI50 (TK-10): 3.18 µM (inactive) | GI50 (U-251): 2.35 µM (inactive) | GI50 (UACC-257): 2.9 µM (inactive) | GI50 (UACC-62): 1.98 µM (inactive) | GI50 (UO-31): 1.67 µM (inactive)

CC[C@@]1(O)C(=O)OCc2c1cc1n(c2=O)Cc2c-1nc1ccccc1c2/C=N\NC(=O)CN
GI50 (786-0): 0.0908 µM (active) | GI50 (A498): 0.488 µM (active) | GI50 (A549): 0.687 µM (active) | GI50 (ACHN): < 0.0197 µM (active) | GI50 (BT-549): 0.627 µM (active) | GI50 (CAKI-1): 0.131 µM (active) | GI50 (CCRF-CEM): < 0.0163 µM (active) | GI50 (COLO 205): 15.6 µM (inactive) | GI50 (DU-145): 0.0989 µM (active) | GI50 (EKVX): 12 µM (inactive) | GI50 (HCC 2998): 2.21 µM (inactive) | GI50 (HCT-116): 0.419 µM (active) | GI50 (HCT-15): 0.221 µM | GI50 (HL-60): 0.145 µM (active) | GI50 (HOP-62): 0.0533 µM (active) | GI50 (HOP-92): 1.15 µM (inactive) | GI50 (HT-29): 1.68 µM (inactive) | GI50 (Hs-578T): > 40.5 µM (inactive) | GI50 (IGROV-1): 2.59 µM (inactive) | GI50 (K562): 0.586 µM (active) | GI50 (KM12): 6.14 µM (inactive) | GI50 (LOX IMVI): 0.0989 µM (active) | GI50 (M14): 0.126 µM (active) | GI50 (MCF7): 0.0495 µM (active) | GI50 (MDA-MB-231): 23 µM (inactive) | GI50 (MDA-MB-435): 1.61 µM (inactive) | GI50 (MDA-N): 1.57 µM (inactive) | GI50 (MOLT-4): < 0.0316 µM (active) | GI50 (Malme-3M): 2.76 µM (inactive) | GI50 (NCI-H226): 0.188 µM (active) | GI50 (NCI-H23): 0.0676 µM (active) | GI50 (NCI-H460): 0.042 µM (active) | GI50 (NCI-H522): 1.02 µM (active) | GI50 (NCI/ADR-RES): 0.726 µM (active) | GI50 (OVCAR-3): 6.9 µM (inactive) | GI50 (OVCAR-4): 9.46 µM (inactive) | GI50 (OVCAR-5): 3.24 µM (inactive) | GI50 (OVCAR-8): 0.273 µM (active) | GI50 (PC-3): 4.73 µM (inactive) | GI50 (RPMI-8226): 0.147 µM (active) | GI50 (RXF 393): 0.873 µM (active) | GI50 (SF-268): 0.0387 µM (active) | GI50 (SF-295): 0.143 µM (active) | GI50 (SF-539): 0.0258 µM (active) | GI50 (SK-MEL-28): 23 µM (inactive) | GI50 (SK-MEL-2): 23.8 µM (inactive) | GI50 (SK-MEL-5): 0.252 µM (active) | GI50 (SN12C): 0.0458 µM (active) | GI50 (SNB-19): < 0.0397 µM (active) | GI50 (SNB-75): 0.133 µM (active) | GI50 (SR): < 0.0125 µM (active) | GI50 (SW-620): 0.315 µM (active) | GI50 (T47D): 0.0486 µM (active) | GI50 (TK-10): 26.1 µM (inactive) | GI50 (U-251): 0.135 µM (active) | GI50 (UACC-257): 2.49 µM (inactive) | GI50 (UACC-62): 0.0333 µM (active) | GI50 (UO-31): 0.33 µM (active)
